Consider 43 compounds from patent US20040063783A1, “Nitroso diphenylamine derivatives” (priority 2003, published 2004).

What all share (assay type): biochemical
Test [1] has as its system human low molecular weight lipoproteins. Nature of the test: Prevention of cupric-ion oxidation of human low molecular weight lipoproteins (apoprotein B fluorescence), compounds of the formula II. To be noted: lipoproteins oxidized with cupric ions for 24 hours at 37° C, fluorescence excitation 360 nm, emission 460 nm. The protocol:
In the test carried out, the human low molecular weight lipoproteins are oxidized with cupric ions for 24 hours at 37° C. The B apoprotein bome by these lipoproteins becomes fluorescent on oxidation (excitation at 360 nm, emission at 460 nm). In the presence of the compounds of the formula II, a decrease in fluorescence is noted, which reflects the antioxidant power of the compounds of the formula II. The results are expressed in the form of a 50% inhibitory concentration (IC50).

The nature of test [2]: Spontaneous nitric oxide release: nitrites+nitrates titrated by colorimetry (Griess reagent, nitrate reductase). The conditions noted are these: test product final concentration 150 μM; 4 hours at 37° C; pH 7.5 PBS buffer; optical density at 540 nm. The protocol: A solution of a compound of the invention spontaneously releases nitric oxide. The nitrite ions resulting therefrom are titrated by colorimetry by means of a specific reagent (Griess). To take account of any release of nitrate ions in addition to the nitrite ions, bacterial nitrate reductase is added to the reaction medium to allow the nitrate ions formed to be reduced.
The reactions and measurements are carried out in transparent 96-well plates. The test products are dissolved at the time of use to a concentration of 3 mM in dimethyl sulfoxide. 95 μl of a reagent containing nitrate reductase (0.18U/ml in 100 mM pH 7.5 PBS buffer, 210 μM β-NADPH, 5 μM FAD) and 5 μl of a solution of the test product (final concentration of 150 μM) are then added to each well. After stirring, the mixture is left to incubate for 4 hours at 37° C. The reaction is then quenched by addition of 100 μl of the Griess reagent (Sigma G4410). The reagent is allowed to act for 5 minutes at room temperature and the optical density is then read at 540. nm. This value is proportional to the concentration of nitrites+nitrates in the medium. A calibration range is made for each plate using NaNO2.
The results are expressed as […] (μM) of nitrites+nitrates released, in Table 5 below.
(The Griess reaction detects nitrite, a stable product of nitric oxide.)

The test system of the next test is Human LDLs. Nature of the test: Oxidation of human LDL in the presence of cupric ion (fluorescence), antioxidant effect. To be noted: human LDL 120 μg/ml, 100 μM CuCl2; difference of fluorescence readings at 2 h and 24 h, 37° C; from 3 product concentrations. As to the method:
Human LDLs dissolved in aqueous solution in the presence of cupric ion become spontaneously oxidized on their protein component, apolipoprotein B. This oxidation makes the particle fluorescent, which is exploited to measure a pharmacological effect.
The reactions and measurements are carried out in black 96-well plates, 10 μl of a solution of the test product dissolved in dimethyl sulfoxide are first mixed with 170 μl of a solution of human LDL at 120 μg/ml and 20 μl of 100 μM CuCl2. After stirring, the mixture is left to incubate for 2 hours at 37° C., and a first fluorescence reading is taken (excitation at 360 nm, reading at 460 nm). The mixture is then left to incubate for a further 22 hours, to take a second reading under the same conditions. The difference between the two values obtained is the measurement of the oxidation of the LDLs in solution. This difference is proportionately smaller the greater the antioxidant power of the test product. Probucol is used as reference product at 10 μM.
The concentrations which inhibit the oxidation by 50% (IC50) are produced from 3 product concentrations.

The structures appear in SMILES notation.

As usually defined, the IC50 is the point on the concentration scale where inhibition reaches its midpoint. Turning to `CCn1nc(C)cc1C(=O)Nc1ccc(Nc2ccc(OC)cc2)cc1`, the half-inhibitory concentration (IC50) in test [1] is 8.3 µM.
Consider `CC(C)(C)c1cc(CC(=O)Nc2ccc(Nc3ccccc3)cc2)ccc1O`, for which the IC50 in test [1] was found to be 4.8 µM.
The same measure, in the same setting: as for `O=S(=O)(/C=C/c1ccccc1)Nc1ccc(Nc2ccccc2)cc1`, the figure is 12.2 µM; as for `COc1ccc(Nc2ccc(NC(=O)c3cc([N+](=O)[O-])ccc3Oc3ccc(OC)cc3)cc2)cc1`, 8.8 µM; as for `COc1ccc(Nc2ccc(NC(=O)c3cccnc3Oc3ccc(Cl)cc3)cc2)cc1`, 3.6 µM.
The same measure, in the same setting: in the case of `COc1ccc(Nc2ccc(NC(=O)c3cnc(Cl)nc3)cc2)cc1` it was 2.6 µM.
Same read-out and setting: in the case of `COc1ccc(Nc2ccc(NC(=O)Cc3cc(C(C)(C)C)c(O)c(C(C)(C)C)c3)cc2)cc1` it was 2.8 µM.
As to `COc1ccc(Nc2ccc(NC(=O)c3sc(S(C)(=O)=O)c4c3CCC=C4)cc2)cc1`, inhibition in test [1] was half-maximal at 7.3 µM (IC50).
Still for that read-out and setting: in the case of `COc1ccc(Nc2ccc(NC(=O)/C=C/c3ccccc3[N+](=O)[O-])cc2)cc1` it was 13.3 µM.
On the same count and under the same terms, in the case of `COc1ccc(Nc2ccc(NC(=O)c3cc(C(C)(C)C)c(O)c(C(C)(C)C)c3)cc2)cc1` it was 9.4 µM; in that of `COc1ccc(Nc2ccc(NC(=O)c3cc4cccc(OC)c4oc3=O)cc2)cc1`, 8.7 µM.
Same read-out and setting: in the case of `CCCCCCc1ccc(C(=O)Nc2ccc(Nc3ccc(OC)cc3)cc2)s1` it was 11.1 µM; in that of `COc1ccc(Nc2ccc(NC(=O)c3cc(Cl)cnc3Cl)cc2)cc1`, 5.4 µM.
Regarding `COc1ccc(Nc2ccc(NS(=O)(=O)c3cccc4cccnc34)cc2)cc1`, inhibition in test [1] was half-maximal at 8.7 µM (IC50).
Same read-out and setting: in the case of `COc1ccc(Nc2ccc(NC(=O)c3ccc[n+]([O-])c3)cc2)cc1` it was 10.5 µM.
Still for that read-out and setting: as for `COc1ccc(Nc2ccc(NC(=O)OCc3ccccc3)cc2)cc1` [253 (formula II), Benzyl 4-[(4-methoxyphenyl)amino]phenylcarbamate], the figure is 2 µM.
With `COc1ccc(N(N=O)c2ccc(NC(=O)c3cccnc3)cc2)cc1` [Example 1, N-nitroso[4-methoxyphenyl][4-(3-pyridylcarbonylamino)phenyl]amine], the “Nitrates + nitrites” value in test [2] was determined as 97 µM. Also, the IC50 with Human LDLs came to 6.4 µM.
As for `COc1ccc(N(N=O)c2ccc(NC(=O)c3cncnc3)cc2)cc1` [Example 4], the “Nitrates + nitrites” value in test [2] is 84 µM. For the same compound, the IC50 with Human LDLs was 5.4 µM.
Take `O=NN(c1ccccc1)c1ccc(NS(=O)(=O)c2cccnc2)cc1` [Example 6]: in test [2], the “Nitrates + nitrites” value worked out at 83 µM. In the test on Human LDLs, the IC50 stood at 6.5 µM.
For `O=NN(c1ccccc1)c1ccc(NC(=O)Nc2ccccc2)cc1` [Example 8] the same measures were 44 µM and 5.4 µM.
For `COc1ccc(N(N=O)c2ccc(NC(=O)c3ccc(C#N)cc3)cc2)cc1` [Example 12], the “Nitrates + nitrites” value in test [2] amounted to 22 µM. Further, the concentration for half-maximal inhibition (IC50) in the test on Human LDLs came out at 2.2 µM.
On to `COc1ccc(N(N=O)c2ccc(NC(=O)c3cccc([N+](=O)[O-])c3)cc2)cc1` [Example 18], for which the “Nitrates + nitrites” value in test [2] is 71 µM. In addition, the IC50 in the test on Human LDLs amounted to 3.7 µM.
The like results for `O=NN(c1ccccc1)c1ccc(NS(=O)(=O)c2ccccc2)cc1` [Example 45] were, in that order, 62 µM and 3.2 µM.
Consider `O=NN(c1ccccc1)c1ccc(NC(=O)c2cccnc2)cc1` [Example 57], for which the “Nitrates + nitrites” value in test [2] turned out to be 109 µM. Moreover, the IC50 in the test on Human LDLs was found to be 8.9 µM.
For the compound `COc1ccc(N(N=O)c2ccc(NS(=O)(=O)c3ccc(OC)cc3)cc2)cc1` [Example 86], in test [2], the “Nitrates + nitrites” value was determined as 79 µM. The half-inhibitory concentration (IC50) in the test on Human LDLs worked out at 3.8 µM.
For the compound `COc1ccc(N(N=O)c2ccc(NC(=O)OCc3ccccc3)cc2)cc1` [Example 253, Benzyl 4-[1-(4-methoxyphenyl)-2-oxohydrazino]phenylcarbamate], the “Nitrates + nitrites” value in test [2] turned out to be 45 µM. In addition, in the test on Human LDLs, the concentration for half-maximal inhibition (IC50) came to 3.6 µM.
As to `CC(C)(Sc1cc(C(C)(C)C)c(O)c(C(C)(C)C)c1)Sc1cc(C(C)(C)C)c(O)c(C(C)(C)C)c1` [Probucol, reference compound], the IC50 in the test with Human LDLs came to 6.4 µM.
Turning to `COc1ccc(Nc2ccc(NC(=O)c3ccco3)cc2)cc1` [T=4-MeO—, X=H, A=CO, Y=2-furyl], the concentration for half-maximal inhibition (IC50) in test [1] came out at 8.4 µM.
As to `COc1ccc(Nc2ccc(NC(=O)c3cccc(C(F)(F)F)c3)cc2)cc1` [T=4-MeO—, X=H, A=CO, Y=3-CF3—C6H4—], in test [1], half-maximal inhibition (IC50) required 6.4 µM.
Same read-out and setting: as for `COc1ccc(Nc2ccc(NC(=O)c3cccnc3)cc2)cc1` [T=4-MeO—, X=H, A=CO, Y=3-pyridyl], the figure is 3.8 µM.
Still for that read-out and setting: as for `COc1ccc(Nc2ccc(NC(=O)c3ccc(N(C)C)cc3)cc2)cc1` [T=4-MeO—, X=H, A=CO, Y=4-(CH3)2N—C6H4—], the figure is 11.2 µM.
On the same count and under the same terms, as for `COc1ccc(Nc2ccc(NS(=O)(=O)c3ccc(OC)cc3)cc2)cc1` [T=4-MeO—, X=H, A=SO2, Y=4-MeO—C6H4—], the figure is 5 µM.
`CSc1ccc(Nc2ccc(NC(=O)c3ccccc3)cc2)cc1` [T=4-MeS—, X=H, A=CO, Y=C6H5] returned an IC50 in test [1] of 1.8 µM.
Same read-out and setting: in the case of `COc1ccc(Nc2ccc(NC(=O)c3cccc([N+](=O)[O-])c3)cc2)cc1` [T=4-Me—O—, X=H, A=CO, Y=3-NO2—C6H4—] it was 6.5 µM.
Turning to `COc1ccc(Nc2ccc(NC(=O)c3cncnc3)cc2)cc1` [T=4-Me—O—, X=H, A=CO, Y=5-pyrimidyl, 4-methoxy4′-[5-pyrimidinylcarbonylamino]diphenylamine], in test [1], it took 5.2 µM to reach half-maximal inhibition (IC50).
On the same count and under the same terms, as for `COc1ccc(Nc2ccc(NS(=O)(=O)c3cccnc3)cc2)cc1` [T=4-Me—O—, X=H, A=SO2, Y=3-pyridyl], the figure is 7.9 µM; as for `O=S(=O)(Nc1ccc(Nc2ccccc2)cc1)c1cccs1` [T=H, X=H, A=SO2, Y=2-thienyl], 3.3 µM.
The same measure, in the same setting: in the case of `CC(=O)Nc1ccc(S(=O)(=O)Nc2ccc(Nc3ccccc3)cc2)cc1Cl` [T=H, X=H, A=SO2, Y=3-Cl,4-CH3CONH—C6H3—] it was 13.4 µM.
For `O=S(=O)(Nc1ccc(Nc2ccccc2)cc1)c1cccc(F)c1` [T=H, X=H, A=SO2, Y=3-F—C6H4—], half-maximal inhibition in test [1] (IC50) was put at 3.7 µM.
With `O=S(=O)(Nc1ccc(Nc2ccccc2)cc1)c1cccnc1` [T=H, X=H, A=SO2, Y=3-pyridyl], in test [1], it took 7.4 µM to reach half-maximal inhibition (IC50).
`CC(=O)Nc1ccc(S(=O)(=O)Nc2ccc(Nc3ccccc3)cc2)cc1` [T=H, X=H, A=SO2, Y=4-CH3CONH—C6H4—] returned an IC50 in test [1] of 12.3 µM.
Consider `N#Cc1ccc(S(=O)(=O)Nc2ccc(Nc3ccccc3)cc2)cc1` [T=H, X=H, A=SO2, Y=4-CN—C6H4], for which, in test [1], the half-maximal inhibitory concentration (IC50) turned out to be 11.8 µM.
On the same count and under the same terms, in the case of `O=[N+]([O-])c1ccc(S(=O)(=O)Nc2ccc(Nc3ccccc3)cc2)cc1` [T=H, X=H, A=SO2, Y=4-NO2—C6H4] it was 4.3 µM.
